From the supplement of paper PMC10307832

How the values were obtained:
Assay in all cases: relative viability (nuclei count vs DMSO), 5 days (fraction); higher = more cells survive
[1] = compound: CC[C@H](Nc1ncnc2[nH]cnc12)c1nc2cccc(F)c2c(=O)n1-c1ccccc1 [Idelalisib] + Nc1ncn([C@H]2C[C@H](O)[C@@H](CO)O2)c(=O)n1 [Decitabine] (partner 2 µM)
Method in brief: (§1)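 One day after seeding in 1536-well plates, lung cancer cell lines were dosed by pin tool. Dosing was either single-drug or a fixed anchor-drug dose plus five library-drug doses (not always all listed) in √10 steps. After 5 days, nuclei were stained in one fix-and-stain step and counted on 4× images, and relative viability is the nuclei count of treated wells over that of vehicle wells, given as the median of duplicate plates.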

[2] = compound: CC[C@H](Nc1ncnc2[nH]cnc12)c1nc2cccc(F)c2c(=O)n1-c1ccccc1 [Idelalisib] + NC(=O)Nc1cc(-c2cccc(F)c2)sc1C(=O)N[C@H]1CCCNC1 [AZD7762] (partner 0.2 µM)
Method in brief: as §1

[3] = compound: CC[C@H](Nc1ncnc2[nH]cnc12)c1nc2cccc(F)c2c(=O)n1-c1ccccc1 [Idelalisib] + CS(=O)(=O)CCNCc1ccc(-c2ccc3ncnc(Nc4ccc(OCc5cccc(F)c5)c(Cl)c4)c3c2)o1 [Lapatinib] (partner 2 µM)
Method in brief: as §1

[4] = compound: Nc1nc2[nH]cc(CCc3ccc(C(=O)N[C@@H](CCC(=O)O)C(=O)O)cc3)c2c(=O)[nH]1 [Pemetrexed] + CC1(C)CCC(c2ccc(Cl)cc2)=C(CN2CCN(c3ccc(C(=O)NS(=O)(=O)c4ccc(N[C@H](CCN5CCOCC5)CSc5ccccc5)c(S(=O)(=O)C(F)(F)F)c4)cc3)CC2)C1 [Navitoclax] (partner 0.5 µM)
Method in brief: as §1

| Cell Line | relative viability ([1]; first compound 0.04 µM) | relative viability ([1]; first compound 0.1265 µM) | relative viability ([1]; first compound 0.4 µM) | relative viability ([1]; first compound 1.265 µM) | relative viability ([1]; first compound 4 µM) | relative viability ([2]; first compound 0.04 µM) | relative viability ([2]; first compound 0.1265 µM) | relative viability ([2]; first compound 0.4 µM) | relative viability ([2]; first compound 1.265 µM) | relative viability ([2]; first compound 4 µM) | relative viability ([3]; first compound 0.04 µM) | relative viability ([3]; first compound 0.1265 µM) | relative viability ([3]; first compound 0.4 µM) | relative viability ([3]; first compound 1.265 µM) | relative viability ([3]; first compound 4 µM) | relative viability ([4]; first compound 0.002 µM) | relative viability ([4]; first compound 0.006325 µM) | relative viability ([4]; first compound 0.02 µM) | relative viability ([4]; first compound 0.06325 µM) | relative viability ([4]; first compound 0.2 µM) |
| --- | --- | --- | --- | --- | --- | --- | --- | --- | --- | --- | --- | --- | --- | --- | --- | --- | --- | --- | --- | --- |
| NCI-H322M | 0.712 | 0.69 | 0.613 | 0.664 | 0.746 | 0.628 | 0.524 | 0.678 | 0.439 | 0.525 | 0.612 | 0.62 | 0.521 | 0.53 | 0.502 | 1.16 | 1.25 | 1.17 | 1.15 | 1.14 |
| NCI-H2170 | 0.507 | 0.471 | 0.505 | 0.438 | 0.417 | 0.859 | 0.873 | 0.819 | 0.542 | 0.737 | 0.285 | 0.267 | 0.242 | 0.29 | 0.29 | 0.538 | 0.587 | 0.663 | 0.662 | 0.5 |
| BEN | 0.736 | 0.649 | 0.757 | 0.775 | 0.694 | 0.748 | 0.739 | 0.765 | 0.584 | 0.664 | 0.88 | 0.635 | 0.613 | 0.73 | 0.602 | 0.0683 | 0.0717 | 0.0575 | 0.0762 | 0.0946 |
| LC-2-ad | 0.789 | 0.797 | 0.811 | 0.825 | 0.711 | 0.826 | 0.86 | 0.734 | 0.782 | 0.632 | 1.04 | 0.963 | 0.949 | 1.05 | 0.868 | 0.304 | 0.437 | 0.363 | 0.159 | 0.162 |
| NCI-H1437 | 0.55 | 0.59 | 0.62 | 0.635 | 0.55 | 1.09 | 1.03 | 1.06 | 0.863 | 1.15 | 0.764 | 0.909 | 0.734 | 0.929 | 0.672 | 0.988 | 1.05 | 1.02 | 0.575 | 0.291 |
| NCI-H3122 | 0.461 | 0.418 | 0.358 | 0.444 | 0.369 | 0.949 | 1.01 | 1.01 | 0.785 | 0.998 | 1.06 | 0.981 | 1.05 | 1.03 | 1.05 | 0.981 | 1.06 | 1.03 | 1.01 | 0.826 |
| NCI-H727 | 1.03 | 0.747 | 0.867 | 0.881 | 0.889 | 0.625 | 0.574 | 0.578 | 0.379 | 0.704 | 0.814 | 1.09 | 0.751 | 1.21 | 0.719 | 0.422 | 0.474 | 0.583 | 0.428 | 0.527 |
| NCI-H1734 | 0.522 | 0.461 | 0.497 | 0.518 | 0.496 | 0.544 | 0.543 | 0.477 | 0.209 | 0.552 | 0.93 | 1.03 | 0.989 | 0.958 | 0.98 | 0.826 | 0.817 | 0.933 | 0.813 | 0.656 |
| HCC-15 | 0.687 | 0.692 | 0.547 | 0.82 | 0.622 | 1.35 | 0.909 | 1.25 | 1.16 | 1.21 | 0.828 | 0.847 | 0.818 | 0.983 | 0.894 | 0.701 | 0.668 | 0.702 | 0.588 | 0.482 |
| NCI-H2405 | 0.751 | 0.752 | 0.644 | 0.838 | 0.691 | 0.821 | 0.779 | 0.534 | 0.601 | 0.705 | 1.16 | 1.07 | 0.897 | 1.14 | 1.04 | 1.13 | 0.882 | 0.907 | 0.778 | 0.776 |
| NCI-H1993 | 0.53 | 0.584 | 0.588 | 0.545 | 0.501 | 0.647 | 0.839 | 0.652 | 0.714 | 0.623 | 0.816 | 0.887 | 0.76 | 0.802 | 0.84 | 0.808 | 0.832 | 0.859 | 0.917 | 0.804 |
| NCI-H460 | 0.382 | 0.562 | 0.448 | 0.466 | 0.503 | 0.639 | 0.611 | 0.615 | 0.2 | 0.682 | 1.1 | 1.2 | 0.932 | 1.01 | 1.02 | 0.945 | 1.1 | 1.33 | 0.388 | 0.0669 |
| NCI-H1651 | 0.717 | 0.374 | 0.611 | 0.578 | 0.651 | 0.522 | 0.456 | 0.46 | 0.245 | 0.519 | 0.707 | 1 | 0.577 | 0.825 | 0.868 | 0.906 | 0.977 | 1.01 | 0.938 | 0.968 |
| NCI-H1975 | 0.393 | 0.374 | 0.373 | 0.383 | 0.381 | 0.75 | 0.724 | 0.661 | 0.743 | 0.646 | 0.966 | 0.99 | 0.836 | 0.889 | 0.61 | – | 1.19 | 1.1 | 1.1 | 0.731 |
| NCI-H2126 | 0.545 | 0.56 | 0.532 | 0.548 | 0.524 | 0.961 | 1.06 | 0.94 | 1.02 | 1 | 0.808 | 0.785 | 0.634 | 0.764 | 0.728 | 0.828 | 0.827 | 0.882 | 0.833 | 0.82 |
| 201T | 0.876 | 0.864 | 0.841 | 0.904 | 0.77 | 0.712 | 0.587 | 0.523 | 0.377 | 0.583 | 0.978 | 1.05 | 1.04 | 1.13 | 1.02 | 1.11 | 1.2 | 1.24 | 1.26 | 1.18 |
